# Entries after “also recorded” stand apart in the source; their conditions may differ.
# Assays:
# [1] = system: H1N1 subtype of influenza virus A/PR/8; experiment: Test Example 1: oral administration to mice infected with influenza virus (1,000 pfu/mouse), body weights and survival rates; type: in vivo
# Procedure: Test solutions were prepared for the test groups and control group shown in Table 1 below, respectively, and effects of oral administration of the solutions on mice infected with an influenza virus were examined. It should be noted that “Tamiflu dry syrup 3%” (product name, Chugai Pharmaceutical Co., Ltd.) was used as an anti-influenza drug oseltamivir.
# As experimental animals, mice (C57BL/6NJc1, male, 6 weeks old) were used, and as the influenza virus, H1N1 subtype of influenza virus A/PR/8 was used. Infection of the mice with the influenza virus was carried out as follows. That is, the mice were placed in a container filled with isoflurane, and taken out after confirming that their breathing became slow. […] After confirming that the mice recovered from anesthesia, the mice were returned to breeding cages.
# It should be noted that the culture solution of Aureobasidium (Test group 1) was orally administered every day during the test period by a sonde method once a day in an amount of 200 μL. […] The body weights of the mice after infection with the virus were measured every day, and transition of the body weights and survival rates were determined.
# [2] = system: H1N1 subtype of influenza virus A/PR/8; experiment: Test Example 2: oral administration to mice infected with influenza virus (2,000 pfu/mouse), body weights and survival rates; type: in vivo
# Procedure: It should be noted that the phrase “dead bacterial cells of EF lactic acid bacterium” in the table means a commercially available heat-sterilized bacterial cell powder of Enterococcus faecalis.
# Infection of mice used as experimental animals with the influenza virus was carried out so that the virus titer was twice as large as that in Test Example 1. That is, the infection was carried out in the same manner as in Test Example 1 except that a diluted virus solution having a virus titer of 4×10^4 pfu/mL was injected from both nasal cavities alternately using a micropipette in an amount of 50 μL (2,000 pfu/mouse).
# That is, in the case of each of Test groups 3 to 5 and Control group 2, the test solution was orally administered every day during the test period by the sonde method once a day in an amount of 200 μL. […]
# The body weights of the mice after infection with the virus were measured every day, and transition of the body weights and survival rates were determined.
# [3] = system: H1N1 subtype of influenza virus A/PR/8; experiment: Test Example 4: virus titer in lung of mouse (plaque count on MDCK cells); type: in vivo, mice
# Procedure: In order to study mechanisms of the effects shown in Test Examples 1 to 3, influences on a virus titer in the lung of a mouse infected with the influenza virus were examined. Specifically, test solutions were prepared for the test groups and control group shown in Table 7 below, respectively, and orally administered, and the virus titer in the lung of each mouse infected with the influenza virus was examined. It should be noted that the phrase “dead bacterial cells of EF lactic acid bacterium” in the table means a commercially available heat-sterilized bacterial cell powder of Enterococcus faecalis.
# That is, the mice were infected with the influenza virus in the same manner as in Test Example 2 except that the period after the beginning of administration of the test solutions was changed to one week. […] In the case of Test group 14, the test was carried out in the same manner as in Test group 13 except that the dead bacterial cells of the lactic acid bacterium (6.7×10^9 cells) were used in combination as a suspension in 200 μL of the culture solution of Aureobasidium. In addition, in the case of Test group 15, to which only oseltamivir was administered, in order to carry out comparison with the maximum effect of administration of only oseltamivir, oseltamivir was orally administered continuously every day (morning and evening, in an amount of 200 μL per dose) after virus infection.
# The virus titer in the lung of a mouse was measured as follows.
# On day 1, day 3, and day 5 of virus infection, three mice of each group were dissected, and the lung washed with PBS to remove blood was collected. The collected lung was crushed, and the tissue was separated as a cell suspension and then centrifuged at 5,000 rpm for 10 minutes. The supernatant was collected and used as a sample. The collected sample was diluted serially in 10-fold steps with 1×MEM to concentrations ranging from 10^−1 to 10^−6. On the other hand, MDCK cells were cultured from the previous day, and a state in which the MDCK cells (one sample: one 12-well plate) were proliferated to confluency was confirmed. Then, the medium of the MDCK cells was removed, and the cells were washed with 1 ml of PBS. PBS used for washing was removed, and each of the samples diluted serially was added in an amount of 100 μL, and then the plate was allowed to stand still in a 5% CO2 incubator (37° C.) for one hour. During incubation, the plate was shaken every 15 minutes to prevent the cells from drying. Subsequently, 2×MEM was mixed with an equal amount of a 1.6% agar solution, and trypsin was added so as to reach a final concentration of 0.0005% to prepare a MEM-agar solution. The solution was warmed in a water bath at 42° C. One hour later, the virus solution was removed, and the cells were washed with 1 ml of PBS. The prepared MEM-agar solution was added to each well in an amount of 1 ml, and the plate was allowed to stand for a while until the agar was solidified. After that, the cells were cultured in a 5% CO2 incubator (35° C.), and 48 hours later, the number of plaques was counted.
# NK cells = system: NK cells; design: species or system mice; conditions: mouse, in vivo
# T cells = system: T cells; design: species or system mice; conditions: mouse, in vivo
structure (smiles),measurement,setting,value
"CCOC(=O)C1=C[C@@H](OC(CC)CC)[C@H](NC(C)=O)[C@@H](N)C1 [Test group 2, oseltamivir]",survival rate,"[1]; 1,000 pfu/mouse, oral, until day 14 of infection, 3 mice",100%
same,body weight increase at the end of the test (day 14 of infection) as compared to the first day of infection,"[1]; individual mouse, 1,000 pfu/mouse",5%
same,body weight at completion of the test,"[1]; individual mouse, after recovery, day 14 of infection",same body weight as that on the first day of infection
same,body weight decrease at completion of the test as compared to the first day of infection,"[1]; individual mouse, day 14 of infection",3%
same,body weight decreased by up to,"[1]; individual mouse, maximum loss after infection, 1,000 pfu/mouse",about 20%; also recorded: about 25%
same,body weights decreased by up to,[2]; mice whose body weight decreased,about 34%
same,mice died during the test period,"[2]; oral, until day 17 of infection",50%
same,Comparison of virus titers (virus titer for administration of PBS on each day after infection is defined as 1),[3]; 1 day after infection,1/5
same,Comparison of virus titers (virus titer for administration of PBS on each day after infection is defined as 1),[3]; 3 days after infection,1/53
same,Comparison of virus titers (virus titer for administration of PBS on each day after infection is defined as 1),[3]; 5 days after infection,1/89
same,mouse lung virus titer,[3]; day 1 of infection,5.88 log10 PFU
same,increase of lung virus titer as compared to day 1 of infection,[3]; day 3 of infection,15.4 fold
same,mouse lung virus titer,[3]; day 3 of infection,6.83 log10 PFU
same,increase of lung virus titer as compared to day 1 of infection,[3]; day 5 of infection,122 fold
same,mouse lung virus titer,[3]; day 5 of infection,7.76 log10 PFU
same,ratio of NK cells in viable cells in the lung,NK cells,about 1.8%
same,ratio of NK cells in viable cells relative to Control group,NK cells,about one-quarter
same,ratio of activated NK cells in the NK cells,NK cells,46.2%
same,number of activated T cells relative to Control group 5,T cells,about one-third
same,ratio of activated T cells in the T cells,T cells,7.3%
